One data set addresses T1, glu158-HFMO3-MBP (Homo sapiens, UniProt P31513).
T1 sequence (P31513 2-532): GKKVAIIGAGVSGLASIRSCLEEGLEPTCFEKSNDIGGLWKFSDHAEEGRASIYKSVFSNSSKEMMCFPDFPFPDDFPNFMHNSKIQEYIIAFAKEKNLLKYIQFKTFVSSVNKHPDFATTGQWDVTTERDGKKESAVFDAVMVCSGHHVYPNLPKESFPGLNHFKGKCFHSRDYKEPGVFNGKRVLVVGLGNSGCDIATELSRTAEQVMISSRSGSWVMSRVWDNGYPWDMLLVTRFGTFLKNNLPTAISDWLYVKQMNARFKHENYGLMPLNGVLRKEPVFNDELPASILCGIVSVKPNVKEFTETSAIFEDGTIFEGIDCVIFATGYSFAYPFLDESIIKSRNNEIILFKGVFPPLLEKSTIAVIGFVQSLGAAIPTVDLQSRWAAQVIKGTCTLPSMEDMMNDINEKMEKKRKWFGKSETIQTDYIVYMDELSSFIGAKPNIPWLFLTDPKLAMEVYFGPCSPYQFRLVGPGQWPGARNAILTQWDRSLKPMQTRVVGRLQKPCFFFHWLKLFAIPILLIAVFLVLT
The experiment in a line: Substrate oxygenation by glu158-HFMO3-MBP fusion protein, HPLC. The note with it: glu158-HFMO3-MBP, N-oxygenation. How it is done:
For HFMO3-MBP assay, all HFMO3-MBP incubations were done as follows: Into a test tube was added DETAPAC (1.2 mM, final concentration for a 250 μl reaction) followed by the addition of 60 μl NADPH generating system (0.4 mM NADP, 0.4 mM glucose-6-phosphate, and 20 μl of a 50 units mI^−1 glucose-6-phosphate dehydrogenase). The tube was chilled on ice and buffer and enzyme were added as described below for individual experiments to give a volume of 240 μl. The incubation was initiated by the addition of 5-DTP (10 μl of 5 mM) and placed in a shaking water bath at 37° C. for 10 min (unless specified otherwise). The incubation was stopped by the addition of 1.0 ml of ice-cold CH2Cl2. Following the addition of sodium carbonate (approx. 20 mg), the culture tube was vortexed, centrifuged (2000×g, 10 min), and the organic layer was removed and transferred to a 1.5 ml microfuge tube. The organic solvent was evaporated under a stream of Ar(g) to dryness and the residue was taken up in MeOH (300 μl) for determination HPLC analysis.
Data was analyzed with a Hitachi D-2500 integrator.
MTS-oxygenation assays were carried out under the same buffer, temperature, time and volume conditions, as for the N-oxygenation assays. The reactions were initiated upon addition of 10 μl of a 5 mM solution of MTS. The reaction was quenched with the addition of 700 μl of 80% CH3CN:20% hexane then 20 mg NaCl(s) and vortexed vigorously for 10 sec. The quenched reactions were then centrifuged briefly to separate the phases. The organic layer, containing product and substrate, was removed and used directly for HPLC analysis.
All other instruments used were the same as above for the N-oxygenation reactions. Conditions for elution were 50% CH3CN/H2O (v:v) with a flow rate gradient as follows: 1.5 ml min^−1 from 0 to 4 min., 1.5-2.5 ml min^−1 from 4 to 5 min, 2.5 ml min^−1 from 5 to 15 min.
Trimethylamine is commonly ingested in foodstuffs or it is available in the diet of humans from choline and other sources. Trimethylamine (TMA) is exclusively eliminated in humans by metabolism to trimethylamine N-oxide (TMANO). […]

For another data set, the system named is Human Liver Microsomes. Nature of the data set: in vitro.

Molecules are shown by their SMILES.

On to `CN(C)CCCCCN1c2ccccc2Sc2ccc(C(F)(F)F)cc21` [Compound 5], for which, on glu158-HFMO3-MBP, the Km is 108 µM. Moreover, the Vmax on glu158-HFMO3-MBP (Lineweaver-Burke analysis) is reported as 15.8 nmole/min/nmol of flavin. Moreover, in the data set with Human Liver Microsomes, the Km turned out to be 6.8 µM; the “N-oxide formation, Human Liver Microsomes” value is listed as 252.1 ± 38.6 pmol/min/mg of protein; the “S-oxide formation, Human Liver Microsomes” value is 32.5 ± 33.7 pmol/min/mg of protein; the “Vmax, Human Liver Microsomes” value is recorded as 0.098 nmol/min/mg of protein.

One may read the Km as the substrate concentration at which the rate is half of its maximum.

These data come from patent US6762052B1, “DNA sequence encoding flavin-containing monooxygenase” (priority 1993, dated 2004).
